We go through three molecules from patent US11976076B1 (priority 2023, dated 2024).

Values after ≈ are worked out from the molar mass of the structure shown.

Data set [1] concerns Mycobacterium tuberculosis H37Rv (ATCC: 25177). Kind of data set: Resazurin Microplate Assay (REMA), anti-tubercular activity against H37Rv. The data set is classed as cell-based. To be noted: 192 h, read-out: Anti-tubercular activity (MIC) H37Rv.

Molecule `O=c1[nH]c(=S)[nH]c2[nH]c(=S)nc(-c3c[nH]c4ccccc34)c12` [Compound 4b, 5-(1H-Indol-3-yl)-2,7-dithioxo-2,3,7,8-tetrahydropyrimido[4,5-d]pyrimidin-4(1H)-one] came in with a melting point of 188 to 190 °C. The MIC in data set [1] is 2 µg/mL (≈ 6.11 µM).
For `O=c1[nH]c(=O)c2c(-c3c[nH]c4ccccc34)nc(=S)[nH]c2[nH]1` [Compound 4a, 5-(1H-Indol-3-yl)-7-thioxo-7,8-dihydropyrimido[4,5-d]pyrimidine-2,4(1H,3H)-dione], in that order: 114 to 116 °C and 4 µg/mL (≈ 12.8 µM).
Consider `Cn1c(=O)c2c(-c3c[nH]c4ccccc34)nc(=S)[nH]c2n(C)c1=O` [Compound 4c, 5-(1H-Indol-3-yl)-1,3-dimethyl-7-thioxo-7,8-dihydropyrimido[4,5-d]pyrimidine-2,4(1H,3H)-dione], for which the melting point lay within 258 to 260 °C. The MIC in data set [1] was 1 µg/mL (≈ 2.95 µM).
